Test results published in US12391660B2, “Heteroaromatic acetamide derivative, and preparation and use thereof” (Hangzhou Westan Pharmaceutical Technology Co., Ltd, priority 2019, dated 2025).

Key:
human TRPA1 = human TRPA1 (Homo sapiens (Human), UniProt O75762); assay: Inhibitory activity on human TRPA1 by conventional patch clamp assay; type: cell-based; details: for inhibition at 5 µM: read-out: TRPA1 % Inhibition rate (5 μM); for IC50: HEK293 human TRPA1, 100 μM cinnamaldehyde
Description: 2. Inhibitory Activity on Human TRPA1 by Conventional Patch Clamp Assay
In order to compare the influences of different measuring methods on the inhibitory activity of compounds, a conventional patch clamp method was used to further measure the inhibitory activity of compounds 1, 11, 31, 50, and 78 on TRPA1. The principle and procedures of the conventional patch clamp assay could be found in the literature report of Chen et al [Chen et al. Pain 2011, 152(5):1165-72].
Evaluation of TRPA1 inhibitory activity of compounds was conducted using the HEK293 recombinant cell strain (Creative Biogene, NY) stably expressing human TRPA1. Cells were cultured in a DMEM/F12 (3:1, Thermo Fisher Scientific) medium (containing 5% calf serum, 2 mM glutamine and 20 mM HEPES) in an incubator at 37° C. and air humidity containing 5% CO2.
During the experiment, the adherent cells were placed in a recording room under the inverted microscope. All experiments were performed at room temperature. Each cell itself was used as a control thereof.
Test compounds at a final concentration were all prepared on the testing day and then dissolved in the extracellular fluid. The extracellular fluid was (mM): NaCl, 137; KCl, 4; CaCl2, 1.8; MgCl2, 1; HEPES, 10; glucose 10; pH 7.4 (NaOH titration). All the solutions of the test compounds and control compounds contained 0.3% DMSO.
The compounds were all perfused with a perfusion system by virtue of their own gravity. At least two cells were tested for each concentration of the compound. After the current became stable, the variation in magnitude of the current before and after the compound was used to calculate the blocking effect of the compound. 100 μM cinnamaldehyde was used as the positive control.
The cells were transferred to the perfusion tank and perfused with extracellular fluid. The intracellular fluid was: 130 mM K-aspartate; 5 mM MgCl2; 5 mM EGTA; 10 mM
HEPES; pH 7.2 (KOH titration). The intracellular fluid was stored in a small amount in a −80 degree refrigerator in batches, and thawed on the day of the experiment. The electrode was pulled with PC-10 (Narishige, Japan). Whole-cell patch clamp recording was adopted and noise was filtered at one-fifth of the sampling frequency.
The cells were clamped at 20 mV, and then depolarized to 80 mV with a square wave of 500 milliseconds to obtain the TRPA1 current (see FIG. 1).
This procedure was repeated every 3 seconds. Cells were patched in a normal extracellular fluid, current A was obtained via voltage procedure testing, and then perfusion was conducted with an extracellular fluid added with 100 μM cinnamaldehyde to activate TRPA1 current to obtain current B. After the current stabilized, elution was conducted with normal extracellular fluid and perfusion was conducted with an extracellular fluid added with 100 μM cinnamaldehyde and a compound at various concentrations to obtain current C. Finally, blocking rate of the compound was obtained according to […], see FIG. 2.
Data collection and analysis was conducted using pCLAMP 10 (Molecular Devices, Union City, CA). Current stabilization meant that the variation in the current with time was within a limited range. The magnitude of the current after stabilization was used to reflect the effect of the compound in this process.

asthmatic mice = assay: Ovalbumin-induced asthma mouse model (BALF leukocyte counts, lung inflammation); type: in vivo, BABL/c mice; details: for percentage of eosinophils in BALF / percentage of macrophages in BALF / percentage of neutrophils in BALF / total number of leukocytes in BALF: intraperitoneal injection; for percentage of eosinophils in BALF / percentage of macrophages in BALF / percentage of neutrophils in BALF / total number of leukocytes in BALF / eosinophils in BALF: vs model control
Description: 4. Effects of Compounds on Ovalbumin-Induced Asthma in Mouse and Rat Models
SPF-grade SD male rats (purchased from Zhejiang Academy of Medical Sciences, license number SCXK (Zhejiang) 2019-0002) with a body weight of 160-180 g; and SPF-grade female BABL/c mice (purchased from Zhejiang Weitong Lihua Experimental Animals Technology Co., Ltd., license number SCXK (Zhejiang) 2019-0001) with a body weight of 16-18 g were used. The above animals were raised by the Experimental Animal Center of Zhejiang Academy of Traditional Chinese Medicine.
Formulation of compound solution: compound was vortexed in a solvent system, dissolved by ultrasound, and prepared into a solution at a corresponding concentration, which was prepared just before use (the solvent system was composed of 5% Solutol HS 15, 5% DMSO and 90% physiological saline).
BABL/c mice or SD rats were randomly divided into: normal control group, model control group, dexamethasone group (0.72 mg/kg), and the respective test compound groups (one group for each dose), 10 mice in each group; 6 rats in each group.
Sensitization of mice: on the mornings of Day 0, Day 7, and Day 14, mice in the model control group and the respective drug administration groups were intraperitoneally injected with 0.2 ml of 10% OVA sensitizing solution (Yuanye Bio), and the normal control group was intraperitoneally injected with an equal volume of normal saline. In the afternoons of Day 7 and Day 14, mice in the model control group and the respective drug administration groups were intraperitoneally injected with 0.2 ml of 10% OVA (Sigma), and the normal control group was intraperitoneally injected with an equal volume of normal saline.
Mice: from Day 21, the normal control group and the model control group were not treated; the dexamethasone group and the respective test compound groups were intraperitoneally injected, 20 minutes before each challenge, with the corresponding drugs, injection volume: 0.1 ml/10 g, administered for 7 consecutive days; mice in the test compound-oral group were given the corresponding drugs by intragastric administration 30 minutes before the challenge; the test compound-atomization group or the dexamethasone-atomization group was given the corresponding drugs at different concentrations before challenge, 8 ml for each group, atomization for 30 minutes; the normal control group and the model control group were given no treatment. Administration was conducted for 7 consecutive days.
Mice: from Day 21, the mice in the model control group and the respective administration groups were placed in airtight containers in turn, and the challenging solution was atomized with an ultrasonic nebulizer (approximately 6-8 ml each time), twice a day, OVA challenging solution from Yuanye Shanghai was atomized in the morning, and OVA challenging solution from Sigma was atomized in the afternoon. Mice were challenged for 30 minutes per atomization, for 7 consecutive days. The normal control group was not treated. Mice in the model control group developing cyanosis of lips, accelerated breathing, unsteadiness during standing, nodding breathing, abdominal muscle cramps, etc. was deemed as a sign of success of the animal model.
24 hours after completion of the last challenge, the trachea of the mouse was exposed in front of the neck, a horizontal incision was made in the trachea with an ophthalmic scissor, and a 5 ml syringe-modified tracheal intubation needle was inserted, the left main bronchus was ligated, and the right main bronchus was intubated and tightened with surgical suture. Bronchoalveolar lavage was conducted 3 times with 0.3 ml normal saline, pumpback twice each time. The BALF was combined and collected in a 1.5 ml test tube, which was placed on ice or in a refrigerator at 4 degrees.
50 μl of the above BALF was taken, and 100 μl white blood cell counting diluent (2% iced acetic acid solution) was added thereto and mixed evenly therewith. […]

Chain of human TRPA1 (O75762 whole entry): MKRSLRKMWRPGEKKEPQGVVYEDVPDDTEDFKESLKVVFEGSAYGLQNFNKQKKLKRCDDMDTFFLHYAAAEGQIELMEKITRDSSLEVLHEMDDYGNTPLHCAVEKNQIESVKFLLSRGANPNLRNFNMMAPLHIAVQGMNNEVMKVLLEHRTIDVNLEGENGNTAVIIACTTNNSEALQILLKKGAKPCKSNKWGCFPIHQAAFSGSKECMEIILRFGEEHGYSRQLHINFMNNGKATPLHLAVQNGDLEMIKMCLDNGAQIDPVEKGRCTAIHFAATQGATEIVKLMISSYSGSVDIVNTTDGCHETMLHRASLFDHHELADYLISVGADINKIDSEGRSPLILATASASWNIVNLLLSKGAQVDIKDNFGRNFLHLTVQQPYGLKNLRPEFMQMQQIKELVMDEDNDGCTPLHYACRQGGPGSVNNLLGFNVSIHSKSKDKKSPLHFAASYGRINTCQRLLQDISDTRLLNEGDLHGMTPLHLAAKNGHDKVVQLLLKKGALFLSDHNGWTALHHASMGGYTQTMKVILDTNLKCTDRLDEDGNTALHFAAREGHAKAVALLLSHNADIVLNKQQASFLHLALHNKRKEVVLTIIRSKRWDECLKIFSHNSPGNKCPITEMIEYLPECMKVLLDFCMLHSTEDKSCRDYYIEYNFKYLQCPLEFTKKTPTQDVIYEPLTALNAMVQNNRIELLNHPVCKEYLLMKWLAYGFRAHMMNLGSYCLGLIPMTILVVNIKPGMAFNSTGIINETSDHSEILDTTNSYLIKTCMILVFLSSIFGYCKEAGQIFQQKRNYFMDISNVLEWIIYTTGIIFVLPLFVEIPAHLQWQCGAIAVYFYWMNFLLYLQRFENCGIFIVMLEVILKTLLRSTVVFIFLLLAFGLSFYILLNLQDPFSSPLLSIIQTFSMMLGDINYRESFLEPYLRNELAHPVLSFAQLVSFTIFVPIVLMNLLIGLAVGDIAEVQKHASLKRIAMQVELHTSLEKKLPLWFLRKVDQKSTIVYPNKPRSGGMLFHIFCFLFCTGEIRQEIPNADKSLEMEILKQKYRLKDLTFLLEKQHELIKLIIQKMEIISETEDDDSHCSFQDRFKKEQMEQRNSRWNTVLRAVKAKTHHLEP

SMILES | inhibition at 5 µM (human TRPA1) [%] | IC50 (human TRPA1) [nM] | percentage of eosinophils in BALF (asthmatic mice; P<0.01) | percentage of macrophages in BALF (asthmatic mice; P<0.01) | percentage of neutrophils in BALF (asthmatic mice; P<0.01) | total number of leukocytes in BALF (asthmatic mice; P<0.01) | lung tissue inflammation area (asthmatic mice; oral administration, P<0.05) | eosinophils in BALF (asthmatic mice; oral administration, P<0.01) | airway inflammation score (asthmatic mice; spray inhalation, P>0.05) | lung tissue inflammation area (asthmatic mice; spray inhalation, respective dose groups, P<0.01, 0.05) | eosinophils in BALF (asthmatic mice; spray inhalation, respective dose groups, P<0.05, 0.01)
CC(C)(C)C1CCN(C(=O)C2(Nc3ccc(C#N)cc3)CCCC2)CC1 [Compound 31, 4-((1-(4-(tert-butyl)piperidine-1-carbonyl)cyclopentyl)amino)benzonitrile] | 117 | 98 | decreased | increased | decreased | decreased |  |  |  |  | 
N#Cc1ccc(NC2(C(=O)N3CCN(c4ccc(C(F)(F)F)cc4)CC3)CCCC2)cc1 [Compound 1, 4-((1-(4-(4-(trifluoromethyl)phenyl)piperazine-1-carbonyl)cyclopentyl)amino)benzonitrile] | 99 | 56 | decreased | increased | decreased | decreased | significantly reduced | significantly reduced | decreasing trend, but not reaching a statistical significance | reduce the lung tissue inflammation area of asthmatic mice in a dose-dependent manner | dose-dependent decrease
